The values that follow come from patent US20220356174A1, “PYRIDIN-2-ONE COMPOUNDS USEFUL AS SMARCA2 ANTAGONISTS” (Epizyme, Inc., priority 2018, published 2022).

Where only a bound is given, the exact number is not on record here.

Chain of FL-SMARCA4 (P51532 whole entry): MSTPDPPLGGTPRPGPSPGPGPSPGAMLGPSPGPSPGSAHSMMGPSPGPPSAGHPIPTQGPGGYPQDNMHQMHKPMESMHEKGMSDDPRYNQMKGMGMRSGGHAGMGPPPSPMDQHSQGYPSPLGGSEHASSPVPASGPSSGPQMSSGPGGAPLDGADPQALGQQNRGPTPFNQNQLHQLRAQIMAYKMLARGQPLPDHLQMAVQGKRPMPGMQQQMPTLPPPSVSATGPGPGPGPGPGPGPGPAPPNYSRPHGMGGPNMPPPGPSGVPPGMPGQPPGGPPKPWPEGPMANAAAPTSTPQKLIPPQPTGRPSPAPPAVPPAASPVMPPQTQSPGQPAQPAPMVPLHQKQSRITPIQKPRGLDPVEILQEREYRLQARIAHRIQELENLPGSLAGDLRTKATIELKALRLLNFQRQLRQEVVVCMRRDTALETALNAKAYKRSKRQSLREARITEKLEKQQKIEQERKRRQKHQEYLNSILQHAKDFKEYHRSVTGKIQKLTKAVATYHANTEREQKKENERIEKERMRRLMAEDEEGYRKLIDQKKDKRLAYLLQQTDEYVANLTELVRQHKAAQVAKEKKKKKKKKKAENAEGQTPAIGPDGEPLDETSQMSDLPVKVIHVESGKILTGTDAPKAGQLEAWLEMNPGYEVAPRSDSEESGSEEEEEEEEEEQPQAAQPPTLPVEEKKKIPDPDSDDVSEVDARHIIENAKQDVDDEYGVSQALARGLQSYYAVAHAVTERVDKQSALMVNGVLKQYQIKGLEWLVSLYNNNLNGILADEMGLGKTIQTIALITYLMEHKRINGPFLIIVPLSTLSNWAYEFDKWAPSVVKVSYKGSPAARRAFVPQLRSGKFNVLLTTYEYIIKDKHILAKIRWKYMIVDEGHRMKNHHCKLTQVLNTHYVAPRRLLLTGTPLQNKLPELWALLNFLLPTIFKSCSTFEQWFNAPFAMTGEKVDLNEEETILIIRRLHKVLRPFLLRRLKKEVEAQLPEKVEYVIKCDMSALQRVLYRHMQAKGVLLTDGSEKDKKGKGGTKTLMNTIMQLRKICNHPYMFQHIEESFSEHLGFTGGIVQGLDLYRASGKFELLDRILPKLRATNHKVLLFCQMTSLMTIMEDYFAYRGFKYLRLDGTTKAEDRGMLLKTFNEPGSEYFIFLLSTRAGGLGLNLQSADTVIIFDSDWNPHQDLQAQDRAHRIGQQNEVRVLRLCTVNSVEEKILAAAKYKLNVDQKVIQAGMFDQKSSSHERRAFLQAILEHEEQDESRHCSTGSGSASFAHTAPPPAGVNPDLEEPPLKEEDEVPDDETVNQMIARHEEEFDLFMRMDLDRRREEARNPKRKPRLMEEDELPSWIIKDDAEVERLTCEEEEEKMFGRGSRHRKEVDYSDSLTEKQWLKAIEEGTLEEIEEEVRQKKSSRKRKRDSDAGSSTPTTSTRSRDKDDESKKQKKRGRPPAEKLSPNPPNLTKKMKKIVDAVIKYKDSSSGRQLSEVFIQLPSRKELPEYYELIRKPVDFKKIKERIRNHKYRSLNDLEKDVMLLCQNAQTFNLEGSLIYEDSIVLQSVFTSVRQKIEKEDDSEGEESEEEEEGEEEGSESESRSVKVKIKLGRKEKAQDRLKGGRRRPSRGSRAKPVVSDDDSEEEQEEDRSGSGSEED

For one experiment, the target named is T1, FL-SMARCA2 (full-length human SMARCA2 isoform 1) (Homo sapiens, UniProt P51531).
T1 construct: FLAG tag (YKDDDDK) (C); made in house; host or cells: Sf21 insect cells (baculovirus, pFastBacI)
T1 sequence (P51531 with tags, fused parts or gaps): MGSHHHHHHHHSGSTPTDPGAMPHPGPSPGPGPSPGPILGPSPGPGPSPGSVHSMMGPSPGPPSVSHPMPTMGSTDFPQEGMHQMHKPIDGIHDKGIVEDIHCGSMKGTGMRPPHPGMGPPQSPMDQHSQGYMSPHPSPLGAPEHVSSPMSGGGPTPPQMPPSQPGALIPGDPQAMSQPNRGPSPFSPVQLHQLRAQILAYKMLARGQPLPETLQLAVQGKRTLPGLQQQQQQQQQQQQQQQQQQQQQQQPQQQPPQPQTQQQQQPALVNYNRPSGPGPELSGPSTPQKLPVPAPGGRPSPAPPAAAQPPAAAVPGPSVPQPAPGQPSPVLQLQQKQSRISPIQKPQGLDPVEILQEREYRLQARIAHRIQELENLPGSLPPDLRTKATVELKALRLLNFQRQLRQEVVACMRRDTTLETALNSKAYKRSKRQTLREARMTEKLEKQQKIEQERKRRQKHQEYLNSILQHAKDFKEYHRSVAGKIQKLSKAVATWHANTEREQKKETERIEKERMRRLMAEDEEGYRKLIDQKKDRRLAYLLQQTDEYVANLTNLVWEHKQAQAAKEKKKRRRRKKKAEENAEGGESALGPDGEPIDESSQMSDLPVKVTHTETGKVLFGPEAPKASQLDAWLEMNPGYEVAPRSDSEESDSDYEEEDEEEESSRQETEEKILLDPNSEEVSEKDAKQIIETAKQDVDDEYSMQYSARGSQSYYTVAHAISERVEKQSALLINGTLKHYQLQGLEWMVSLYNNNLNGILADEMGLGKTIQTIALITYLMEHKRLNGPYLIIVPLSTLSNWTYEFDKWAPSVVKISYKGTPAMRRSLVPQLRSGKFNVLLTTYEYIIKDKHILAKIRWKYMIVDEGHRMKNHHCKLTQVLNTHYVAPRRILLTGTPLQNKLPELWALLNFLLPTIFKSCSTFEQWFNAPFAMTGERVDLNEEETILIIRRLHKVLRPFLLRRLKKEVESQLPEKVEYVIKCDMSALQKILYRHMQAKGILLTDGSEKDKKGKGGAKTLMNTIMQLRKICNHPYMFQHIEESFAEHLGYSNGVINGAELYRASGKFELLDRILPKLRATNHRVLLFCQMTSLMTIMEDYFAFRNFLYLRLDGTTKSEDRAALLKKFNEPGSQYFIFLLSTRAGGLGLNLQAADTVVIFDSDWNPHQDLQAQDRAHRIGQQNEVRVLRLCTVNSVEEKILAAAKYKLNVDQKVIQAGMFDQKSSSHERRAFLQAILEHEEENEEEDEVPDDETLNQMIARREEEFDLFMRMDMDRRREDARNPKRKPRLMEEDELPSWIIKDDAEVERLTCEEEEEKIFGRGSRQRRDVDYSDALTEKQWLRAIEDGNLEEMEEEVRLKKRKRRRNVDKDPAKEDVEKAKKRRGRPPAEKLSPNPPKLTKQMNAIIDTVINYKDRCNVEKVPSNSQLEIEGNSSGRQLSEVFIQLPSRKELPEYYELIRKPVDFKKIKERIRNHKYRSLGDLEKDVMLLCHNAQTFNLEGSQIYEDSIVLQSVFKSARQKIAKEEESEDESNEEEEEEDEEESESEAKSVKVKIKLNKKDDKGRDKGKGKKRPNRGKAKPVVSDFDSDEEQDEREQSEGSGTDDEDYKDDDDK
Description: SMARCA2 ATPase activity assay (ADP-Glo, chicken mononucleosome substrate). In kind it is biochemical. To be noted: Table 3.1; ATPase assay, enzyme 5 nM, ATP 250 uM, chicken mononucleosome 10 nM, 30 min preincubation. (ADP-Glo first removes unused ATP, then detects ADP through luciferase.)
Take `CCn1cc(NC(=O)c2nncs2)ccc1=O` [Compound 90]: the IC50 is more than 50 µM.

Consider `O=C(Nc1ccc(=O)n(CC(F)(F)F)c1)c1cc(Cl)c(Cl)s1` [Compound 75], for which the IC50 was 0.437 µM.

The compound `Cn1nc(C#N)cc1C(=O)Nc1cc(F)c(=O)n(CCF)c1` [Compound 243] registered an IC50 of 1.64 µM.

`CCn1cc(NC(=O)c2cc(Cl)c(Cl)s2)cc(N(C)C)c1=O` [Compound 149] registered an IC50 of more than 50 µM.

On to `Cn1c(C(=O)Nc2cc(C#N)c(=O)n(CC(F)(F)F)c2)cnc1Cl` [Compound 214], for which the IC50 amounted to 29.9 µM.

Turning to `NC(=O)c1ncc(C(=O)Nc2cc(F)c(=O)n(CCF)c2)s1` [Compound 226], the IC50 was more than 50 µM.

Take `CCn1cc(NC(=O)c2cc(C#N)[nH]n2)ccc1=O` [Compound 175]: the IC50 was determined as 2.04 µM.

As to `CN(C)CCCNc1cc(NC(=O)c2cc(Cl)c(Cl)s2)cn(CCF)c1=O` [Compound 262], the IC50 was found to be 15.3 µM.

`Cn1nc(C(=O)Nc2cc(F)c(=O)n(CCF)c2)cc1C#N` [Compound 244]: the IC50 is more than 50 µM.

`O=C(Nc1cc(F)c(=O)n(CCF)c1)c1cc(Cl)c(Cl)o1` [Compound 254]: the IC50 stood at 5.81 µM.

`CCn1cc(NC(=O)c2cc(Cl)c(Cl)[nH]2)cc(Cl)c1=O` [Compound 158] registered an IC50 of 1.85 µM.

Regarding `Cc1cc(NC(=O)c2cc(Cl)c(Cl)s2)cn(C)c1=O` [Compound 177], the IC50 was more than 50 µM.

In turn, `O=C(Nc1cc(F)c(=O)n(CCF)c1)c1ccc(C(F)(F)CO)s1` [Compound 322] gave an IC50 of more than 50 µM.

For `O=C(Nc1cc(F)c(=O)n(CCF)c1)c1cc(Cl)n[nH]1` [Compound 155], the IC50 turned out to be 0.163 µM.

In the case of `O=C(Nc1cc(NCCN2CCOCC2)c(=O)n(CCF)c1)c1cc(Cl)c(Cl)s1` [Compound 256], the IC50 came to 6.34 µM.

The compound `CCn1cc(NC(=O)c2cc(I)cn2C)ccc1=O` [Compound 51] registered an IC50 of 46.4 µM.

Turning to `CCn1cc(NC(=O)c2cc(Cl)c(Cl)s2)cc(Cc2ccccc2)c1=O` [Compound 120], the IC50 was more than 50 µM.

In turn, `Cn1cc(NC(=O)c2cc(Cl)c(Cl)s2)cc(Cl)c1=O` [Compound 178] came in with an IC50 of 30.8 µM.

`Cn1c(C(=O)Nc2cc(Cl)c(=O)n(CCF)c2)cc(Cl)c1C#N` [Compound 162]: the IC50 was found to be 0.194 µM.

As for `CC(=O)Nc1ncc(C(=O)Nc2cc(F)c(=O)n(CCF)c2)s1` [Compound 258], the IC50 was more than 50 µM.

The same experiment, now with this note: Table 3d.1; ATPase assay, enzyme 5 nM, ATP 250 uM, chicken mononucleosome 10 nM, 30 min preincubation; read-out: FL-SMARCA2 IC>50.
With `CCn1cc(NC(=O)CC2CCOCC2)ccc1=O` [Compound 9d], the IC50 was more than 50 µM.

For the compound `N#Cc1nc(C(=O)Nc2cc(F)c(=O)n(CC(F)F)c2)co1` [Compound 43d], the IC50 was more than 50 µM.

For `CCc1c(NC(=O)c2cc(Cl)c(Cl)s2)ccc(=O)n1CC` [Compound 30d], the IC50 was more than 50 µM.

Consider `O=C(Nc1cc(F)c(=O)n(CC(F)F)c1)c1ccc(-c2ccccn2)s1` [Compound 34d], for which the IC50 was more than 50 µM.

Consider `CCn1nc(NC(=O)c2cc(Cl)c(Cl)s2)ccc1=O` [Compound 19d], for which the IC50 was more than 50 µM.

As to `Cc1cc(=O)[nH]cc1NC(=O)c1ccc(C(F)(F)F)nc1C` [Compound 32d], the IC50 was more than 50 µM.

`CCn1c(Cl)c(NC(=O)c2cc(Cl)c(Cl)s2)ccc1=O` [Compound 27d]: the IC50 is more than 50 µM.

Take `Cn1cnc2cc(C(=O)Nc3cc(F)c(=O)n(CCF)c3)[nH]c2c1=O` [Compound 48d]: the IC50 was more than 50 µM.

In the case of `O=C(Nc1cc(F)c(=O)n(CC(F)F)c1)c1cc(Cl)on1` [Compound 44d], the IC50 was determined as 29.5 µM.

The next experiment has as its target FL-SMARCA4 (Homo sapiens, UniProt P51532). Description: SMARCA4 ATPase activity assay (ADP-Glo, chicken mononucleosome substrate). To be noted: FL-SMARCA4 IC50.
In turn, `CCn1cc(NC(=O)CC2CCOCC2)ccc1=O` [Compound 9d] yielded an IC50 of more than 50 µM.

Compound `N#Cc1nc(C(=O)Nc2cc(F)c(=O)n(CC(F)F)c2)co1` [Compound 43d] had an IC50 of more than 50 µM.

In the case of `CCc1c(NC(=O)c2cc(Cl)c(Cl)s2)ccc(=O)n1CC` [Compound 30d], the IC50 is more than 50 µM.

Compound `O=C(Nc1cc(F)c(=O)n(CC(F)F)c1)c1ccc(-c2ccccn2)s1` [Compound 34d] came in with an IC50 of more than 50 µM.

Take `CCn1nc(NC(=O)c2cc(Cl)c(Cl)s2)ccc1=O` [Compound 19d]: the IC50 was more than 50 µM.

Compound `Cc1cc(=O)[nH]cc1NC(=O)c1ccc(C(F)(F)F)nc1C` [Compound 32d] came in with an IC50 of more than 50 µM.

Take `CCn1c(Cl)c(NC(=O)c2cc(Cl)c(Cl)s2)ccc1=O` [Compound 27d]: the IC50 is more than 50 µM.

Consider `Cn1cnc2cc(C(=O)Nc3cc(F)c(=O)n(CCF)c3)[nH]c2c1=O` [Compound 48d], for which the IC50 was more than 50 µM.

Turning to `O=C(Nc1cc(F)c(=O)n(CC(F)F)c1)c1cc(Cl)on1` [Compound 44d], the IC50 is more than 50 µM.

The experiment is the same for the next values; noted with them: FL-SMARCA4 IC50, Table 3.2; ATPase assay, enzyme 5 nM, ATP 250 uM, chicken mononucleosome 10 nM, 30 min preincubation.
Compound `CCn1cc(NC(=O)c2nncs2)ccc1=O` [Compound 90] yielded an IC50 of more than 50 µM.

As for `O=C(Nc1ccc(=O)n(CC(F)(F)F)c1)c1cc(Cl)c(Cl)s1` [Compound 75], the IC50 came to 1.52 µM.

For the compound `Cn1nc(C#N)cc1C(=O)Nc1cc(F)c(=O)n(CCF)c1` [Compound 243], the IC50 is 11.7 µM.

Compound `CCn1cc(NC(=O)c2cc(Cl)c(Cl)s2)cc(N(C)C)c1=O` [Compound 149] had an IC50 of more than 50 µM.

The compound `Cn1c(C(=O)Nc2cc(C#N)c(=O)n(CC(F)(F)F)c2)cnc1Cl` [Compound 214] had an IC50 of more than 50 µM.

In turn, `NC(=O)c1ncc(C(=O)Nc2cc(F)c(=O)n(CCF)c2)s1` [Compound 226] yielded an IC50 of more than 50 µM.

As for `CCn1cc(NC(=O)c2cc(C#N)[nH]n2)ccc1=O` [Compound 175], the IC50 stood at 5.6 µM.

With `CN(C)CCCNc1cc(NC(=O)c2cc(Cl)c(Cl)s2)cn(CCF)c1=O` [Compound 262], the IC50 was 25.9 µM.

`Cn1nc(C(=O)Nc2cc(F)c(=O)n(CCF)c2)cc1C#N` [Compound 244] registered an IC50 of more than 50 µM.

`O=C(Nc1cc(F)c(=O)n(CCF)c1)c1cc(Cl)c(Cl)o1` [Compound 254]: the IC50 was found to be 47.1 µM.

Compound `CCn1cc(NC(=O)c2cc(Cl)c(Cl)[nH]2)cc(Cl)c1=O` [Compound 158] registered an IC50 of 13.7 µM.

Take `Cc1cc(NC(=O)c2cc(Cl)c(Cl)s2)cn(C)c1=O` [Compound 177]: the IC50 is more than 50 µM.

`O=C(Nc1cc(F)c(=O)n(CCF)c1)c1ccc(C(F)(F)CO)s1` [Compound 322]: the IC50 was more than 50 µM.

The compound `O=C(Nc1cc(F)c(=O)n(CCF)c1)c1cc(Cl)n[nH]1` [Compound 155] yielded an IC50 of 0.529 µM.

As to `O=C(Nc1cc(NCCN2CCOCC2)c(=O)n(CCF)c1)c1cc(Cl)c(Cl)s1` [Compound 256], the IC50 amounted to 21.4 µM.

`CCn1cc(NC(=O)c2cc(I)cn2C)ccc1=O` [Compound 51] registered an IC50 of more than 50 µM.

Turning to `CCn1cc(NC(=O)c2cc(Cl)c(Cl)s2)cc(Cc2ccccc2)c1=O` [Compound 120], the IC50 is more than 50 µM.

In turn, `Cn1cc(NC(=O)c2cc(Cl)c(Cl)s2)cc(Cl)c1=O` [Compound 178] returned an IC50 of 37.7 µM.

With `Cn1c(C(=O)Nc2cc(Cl)c(=O)n(CCF)c2)cc(Cl)c1C#N` [Compound 162], the IC50 is 0.94 µM.

With `CC(=O)Nc1ncc(C(=O)Nc2cc(F)c(=O)n(CCF)c2)s1` [Compound 258], the IC50 is more than 50 µM.
